Source: patent US20030236306A1, “Stabilized formulations of alpha adrenergic receptor antagonists and the uses thereof” (priority 2002, published 2003)
Where a name gives a salt, the structure may show the parent alone.

Columns and labels:
[1] = test system: local anesthesia by 2% polocaine (mepivacaine hydrochloride) with levonordefrin; experiment: Reversal of local anesthesia by LARA versus saline vehicle, bilateral injection in human subjects; type: in vivo; conditions: three subjects, 0.05 mg/ml phentolamine mesylate (0.08 mg)
Experimental: An injection of the physiological saline vehicle (without phentolamine mesylate) served as the control. […] This was followed by injection of the phentolamine mesylate containing local anesthetic reversal agent (LARA) into one side of the oral cavity, and injection of the saline vehicle (control) solution into the opposite side of the oral cavity. The time to reversal of the local anesthetic effect on both sides was then recorded to determine whether there is a difference between the two sides.
The local anesthetic used was 2% polocaine (mepivacaine hydrochloride) with levonordefrin (1:20,000=0.05 mg/ml) (levonordefrin injection, USP) (Astra USA, Inc., Westborough, Mass. 01581). Levonordefrin is a sympathomimetic amine with a pharmacological profile similar to that of epinephrine, but with a lower potency.
Three healthy, male human subjects, age 34-50, volunteered to have local anesthetic injected in the mouth bilaterally under the lip in an easily repeatable location. The exact time of each injection was recorded. The position chosen was above (apical) the prominence of the root of the upper cuspid teeth. This is a common site selected to numb the cuspids, lateral incisors and upper lip. The volume of the local anesthetic injected was 1.7+0.1 ml on each side of the mouth. […]

[2] = Effect of sodium acetate buffer concentration on stability, pH 3.5, 60° C.; type: physicochemical
Experimental: (§1) The drug is monitored at a detection wavelength of 232 nm.
Tightly sealed glass vials containing the test solutions were placed in an oven at 40° C. or 60° C. All samples were stored in the dark. Aliquots were removed at designated time points for HPLC analysis and pH measurement.
In conjunction with HPLC analysis, pH was measured. The measurement was performed using the same samples as used for the HPLC analysis. The pH meter was calibrated using pH 4.00 and 7.00 buffer standards prior to each measurement.
Samples were incubated at 60° C. with scheduled testing performed at day 0, 2, 7, and 14. The various buffer concentrations were prepared by diluting the 50 mM buffer with water and re-examining the pH value to determine if the pH 3.5 was constant. Measurements of pH were performed after HPLC analysis of the samples.

[3] = Effect of additives on stability, pH 3.5, 60° C.; type: physicochemical; conditions: 10 mM Sodium Acetate
Experimental: as §1
The pH value of the solutions was readjusted to pH 3.5, as required.
All samples were placed in 10 ml glass serum vials, stoppered with rubber closures with an inert coating (Daikyo Flurotec by WEST Pharmaceutical), and sealed with flip-top caps after sampling. Vials were placed at 60° C. after the weights were recorded.
Sampling occurred at the initial time point and on days 2, 7, and 14.
Vials were weighed, sampled, sealed, re-weighed, and replaced under the selected storage condition until testing at the subsequent time point.

[4] = Tonicity testing by vapor pressure osmometer; type: physicochemical; conditions: 0.5 mg/ml disodium EDTA, pH 3.5
From the text: A vapor pressure osmometer (Westcore Model 5500) was used to measure the osmolarity of the solutions as well as a control of Normal Saline solution (0.9% sodium chloride, USP). The tonicity of the phentolamine solutions was represented by osmolarity. The measured osmolarity was plotted against d-mannitol concentration. A linear relationship was obtained between the osmolarity and d-mannitol concentration. The concentration of d-mannitol required to achieve the same osmolarity as the Normal Saline solution was calculated for the 10 or 50 mM sodium acetate buffered solution.

[5] = systemic doses, usually with marked hypotensive episodes; cited from earlier work
[6] = test system: local anesthetic containing an alpha adrenergic receptor agonist; conditions: solution of 0.05 mg/ml; cited from earlier work

pH ([2]; Sodium Acetate 0 mM (un-buffered), Day 0): 3.6
pH ([2]; Sodium Acetate 0 mM (un-buffered), Day 2): 4.4
pH ([2]; Sodium Acetate 0 mM (un-buffered), Day 7): 5.1
pH ([2]; Sodium Acetate 0 mM (un-buffered), Day 14): 5.3
pH ([2]; Sodium Acetate 5 mM, Day 0): 3.5
pH ([2]; Sodium Acetate 5 mM, Day 2): 3.8
pH ([2]; Sodium Acetate 5 mM, Day 7): 3.8
pH ([2]; Sodium Acetate 5 mM, Day 14): 3.8
pH ([2]; Sodium Acetate 10 mM, Day 0): 3.5
pH ([2]; Sodium Acetate 10 mM, Day 2): 3.7
pH ([2]; Sodium Acetate 10 mM, Day 7): 3.8
pH ([2]; Sodium Acetate 10 mM, Day 14): 3.7
pH ([2]; Sodium Acetate 50 mM, Day 0): 3.5
pH ([2]; Sodium Acetate 50 mM, Day 2): 3.6
pH ([2]; Sodium Acetate 50 mM, Day 7): 3.6
pH ([2]; Sodium Acetate 50 mM, Day 14): 3.6
Phentolamine Concentration ([3]; EDTA, 0.7 mg/ml, Day 0): 106 µg/mL
Phentolamine Concentration ([3]; EDTA, 0.7 mg/ml, Day 2): 103 µg/mL
Calculated % Mannitol for Isotonicity ([4]; 10 mM sodium acetate): 5.03%
Calculated % Mannitol for Isotonicity ([4]; 50 mM sodium acetate): 4.39%
Measured Osmolality ([4]; 2% Mannitol, 10 mM sodium acetate): 176 mmol/kg
Measured Osmolality ([4]; 2% Mannitol, 50 mM sodium acetate): 193 mmol/kg
Measured Osmolality ([4]; 3% Mannitol, 10 mM sodium acetate): 213 mmol/kg
Measured Osmolality ([4]; 3% Mannitol, 50 mM sodium acetate): 234 mmol/kg
Measured Osmolality ([4]; 4% Mannitol, 10 mM sodium acetate): 253 mmol/kg
Measured Osmolality ([4]; 4% Mannitol, 50 mM sodium acetate): 276 mmol/kg
Structure (SMILES): Cc1ccc(N(CC2=NCCN2)c2cccc(O)c2)cc1 [Phentolamine Mesylate, phentolamine mesylate]
side-effects [1]: no side-effects of any kind
Rate Constant (zero-order) ([3]; EDTA, 0.7 mg/ml): 0.438 µg/mL/day
Rate Constant (zero-order) ([3]; Glycerol, 25% w/v): 0.726 µg/mL/day
Rate Constant (zero-order) ([3]; NaCl, 50 mg/ml): 1.663 µg/mL/day
Rate Constant (zero-order) ([3]; Niacinamide, 50 mg/ml): -0.026 µg/mL/day
Rate Constant (zero-order) ([3]; No additive): 1.027 µg/mL/day
Rate Constant (zero-order) ([3]; Propylene glycol, 25% w/v): 1.019 µg/mL/day
Rate Constant (zero-order) ([3]; Sodium metabisulfite, 0.5 mg/ml): 1.903 µg/mL/day
Rate Constant (zero-order) ([3]; d-Mannitol, 40 mg/ml): 0.416 µg/mL/day
Rate Constant (zero-order) ([3]; α-Cyclodextran, 50 mg/ml): 0.501 µg/mL/day
side effects reported in package insert [5]: Myocardial infarction, cerebrovascular spasm, and cerebrovascular occlusion have been reported
reversal of local anesthetic effect [6]: can rapidly reverse the effect of a local anesthetic
